The values that follow come from patent US8575147B2, “Spontaneously dispersible N-benzoyl staurosporine compositions” (Novartis AG, priority 1999, dated 2013).

This series is described as follows: Solubility of N-benzoyl-staurosporine in water, simulated gastric and intestinal fluids. The format is physicochemical. As for the experimental part: U.S. Pat. No. 5,093,330 specifically discloses two tablet formulations based on starch/lactose mixtures in the presence of colloidal silica, talc and magnesium stearate (Examples 52 and 53) and a capsule formulation based on talc and colloidal silica (Example 54). […] We have found it to be very lipophilic and practically insoluble in water, in simulated gastric and in intestinal fluids (solubility<0.1 mg/L). In particular this exceptional low solubility of the active substance necessitated development of a non-conventional dosage form.

Broadly, the solubility is the dissolved amount per volume that the medium holds. A higher solubility goes with much dissolved substance.

Turning to `CO[C@@H]1[C@H](N(C)C(=O)c2ccccc2)C[C@H]2O[C@]1(C)n1c3ccccc3c3c4c(c5c6ccccc6n2c5c31)C(=O)NC4` [N-benzoyl-staurosporine], the solubility is listed as < 0.1 mg/L.
